Assay results reported in US20180352816A1, “COMPOSITION FOR CROP CARE AND PROTECTION” (ALPHA BIOPESTICIDES LIMITED, priority 2015, published 2018).
Where two headings read alike, the source gives them in different places.

Legend:
[1] = tested on: E. amylovora; assay: Broth microdilution MIC and FIC index (CLSI protocol)
Description: The antimicrobial activity of the crop defence compositions prepared in above Examples was evaluated through in vitro test of antimicrobial susceptibility with broth microdilution method (CLSI protocol—Clinical and Laboratory Standards Institute).
The Minimum Inhibitory Concentrations (MICs) were determined in multiwell plates.
The determination of synergy was evaluated by using standard protocol and evaluating in particular the FIC index.
The value of FIC index was determined through the following formula:

[2] = tested on: P. infestans; assay: microbe, parasite or virus in culture; assay type: cell-based
[3] = tested on: Z. tritici; assay: Broth microdilution MIC and FIC index (CLSI protocol); assay type: cell-based
[4] = tested on: P. syringae; assay: as above; assay type: cell-based; conditions: triplicate
Description: FIC index>1: no synergistic effect.

[5] = tested on: B. cinerea; assay: as above; assay type: cell-based
[6] = E. amylovora, broth microdilution, triplicate

## [Cu+2].[OH-].[OH-] [Copper hydroxide, copper hydroxide]
[1]; [6]
  MIC: 375 µg/mL

## [Cl-].[Cu+2].[Cu+2].[OH-].[OH-].[OH-] [Copper oxychloride, copper oxychloride]
[2]; P. infestans, broth microdilution, triplicate
  MIC: 3600 µg/mL

## CCCCCCCC/C=C\CCCCCCCC(=O)[O-].[K+] [Potassium oleate]
[3]; Zymoseptoria tritici
  MIC: 15100 µg/mL
[1]; Erwinia amylovora
  MIC: 7.3 µg/mL
[2]; Phytophthora infestans
  MIC: 220 µg/mL
[4]; Pseudomonas syringae, read-out: MIC
  MIC: 30 µg/mL
[5]; Botrytis cinerea
  MIC: 3770 µg/mL

## copper anthranilate
[1]; [6]
  MIC: 290 µg/mL
[4]
  MIC: 590 µg/mL

## copper salicylate
[3]; Z. tritici, broth microdilution, triplicate
  MIC: 235 µg/mL
[5]; B. cinerea, broth microdilution, triplicate
  MIC: 60 µg/mL
